Test results as given in US20230129485A1, “SYSTEM AND METHOD FOR DETERMINING MATERIAL PROPERTIES OF MOLECULAR SYSTEMS FROM AN AB-INITIO PARAMETERIZED FORCE-FIELD” (InterX, Inc., priority 2021, published 2023).
Where two headings read alike, the source gives them in different places.

Experiments:
[1] = experimental, cited from earlier work
[2] = CHEX/H2O partition coefficient (log D) predicted with the QM-parameterized force field model (ARROW FF)
From the text: In some simulations, the example QM-parameterized force-field molecular simulation process includes using the functional form of the bonded interactions, with force constants and equilibrium values fitted to QM energies at the MP2/aug-cc-pVTZ level of theory. In some simulations, solvents of water and cyclohexane are selected. Cyclohexane (CHEX) is nonpolar and equilibrates relatively quickly. Reliable experimental data for both CHEX solvation free energies, as well as for the CHEX/H2O partition coefficients are used in these simulations.
In some example simulations, solutes containing neutral chemical functional groups, for example carboxylic acids, alkanes, alkenes, aromatics, aldehydes, ketones, alcohols, amides, esters, thiols, sulfides, disulfides and heterocycles, are used. The simulations were performed independently by four groups using their own respective computational resources and architectures, and then averaged. FIGS. 9A-9C show solvation and hydration free energies predictions of various solutes, using the QM-parameterized force field model, in some embodiments.
The straight line is a line of agreement between experimental and simulated/predicted values, and the gray bar is the range or chemical accuracy. […] The molecules here are a subset of those in a) because only those with experimental values for CHEX solvation can be included.

[3] = Free energy of hydration predicted with the QM-parameterized force field model (ARROW FF), classical MD and PIMD simulation in a water box; details: for Arrow PIMD8 Error: absolute error vs Exp (hydration)
From the text: For example, the example QM-parameterized force-field molecular simulation process 400 can use Bennett Acceptance Ratio (BAR) to compute the free energy of hydration/solvation of the molecule in water or any other solvent. In some implementations, the analysis of the molecular dynamics simulations includes analysis, predication, and visualization of ensemble properties of atoms/molecules from atomic and molecular trajectories using the optimized parameters of the QM-parameterized force field model (i.e., the quantum mechanics rule-based reasoning technique) and the QM-parameterized force field model.
(§1) In some simulations of the QM-parameterized force field molecular simulation process, the molecules were placed in a water or cyclohexane box of size 32×32×32 Å3. Particle-Mesh Ewald (PME) algorithm was used to compute the electrostatic interactions. A 32×32×32 grid mesh and 5th power spline interpolation order can be used to compute the inverse PME sum. 9 Å cutoffs were used to compute the direct PME sum as well as the exchange and dispersion interactions. Bulk corrections were applied to account for distance cut-off of dispersion interactions. Solvation free energies were computed by decoupling the interactions between the solute and the solvent molecules. Electrostatic, exchange-repulsion and dispersion interactions were switched off simultaneously using a lambda-dependent scaling (a scaling factor power=2 was used) and a soft-coring algorithm (maximal soft-coring radius=1.5 Å, soft-coring radius scaling factor power=1). 15 lambda points unequally spaced (X=0, 0.05, 0.1, 0.2, 0.3, 0.4, 0.5, 0.6, 0.7, 0.75, 0.8, 0.85, 0.9, 0.95, 1.0) were used to decouple the solute-solvent intermolecular interactions.
(§2) In some simulations of the QM-parameterized force field molecular simulation process, energy minimization (10,000 steps) using the steepest descent algorithm was initially performed on all the simulation systems. This was followed by a 50 ps equilibration and 1 ns production runs in the isothermal-isobaric ensemble (NPT). […] Pressure was maintained at 1 atm using a MTTK barostat (relaxation time=5 ps). A Multiple Time Step (MTS) algorithm was used to integrate the equations of motion both for the classical and path-integral runs. […] The calculations were performed using the QM-parameterized force field model.
Using the QM-parameterized force field model, the QM-parameterized force field device can compute or predict the solvation free energies using both the Bennett acceptance ratio (BAR) and thermodynamic integration (TI) method with <dH/dλ> values interpolated by cubic splines. […] FIG. 7A illustrates a <dH/dλ> dependence for desolvation of Anthracene in water. FIG. 7B illustrates accumulated statistical errors for TI calculations of AG desolvation of Anthracene in water.

[4] = Free energy of hydration by Solvation Model Dielectric (SMD) implicit solvent model; details: absolute error vs Exp (hydration)
Experimental: (§3) Due to unavailability of free energy data for the original COSMO model, the free energies of solvation for the molecule dataset are calculated using MolPro ver. […] The comparisons to other implicit solvent models such as SMD, PCM and COSMO-RS are limited to the overlap of the molecules computed using QM-parameterized force field model. The free energies of hydration as predicted by these implicit solvent models (SMD, PCM) were received.

[5] = CHEX/H2O partition coefficient, experimental, cited from earlier work; for Exp (log D): Table 3; for logD Exp (logD): Table 4
[6] = Free energy of hydration by COSMO implicit solvent model (MolPro ver. 2012); details: absolute error vs Exp (hydration)
Experimental: as §3

[7] = Free energy of hydration by COSMO-RS
Experimental: as §3

[8] = Free energy of hydration by Polarizable Continuum Model (PCM); details: absolute error vs Exp (hydration)
Experimental: as §3

[9] = experimental, cited from earlier work; remark: listed apart in the source
[10] = Free energy of solvation in cyclohexane predicted with the QM-parameterized force field model (ARROW FF), MD and PIMD; details: Table 4; for CHEX Arrow MD Error: error of MD cyclohexane solvation free energy vs experiment; for CHEX Arrow PIMD4 Error: error of PIMD4 cyclohexane solvation free energy vs experiment
From the text: Cyclohexane (CHEX) is nonpolar and equilibrates relatively quickly.
as §1, with “Particle-Mesh” for “In some simulations of the QM-parameterized force field molecular simulation process, the molecules were placed in a water or cyclohexane box of size 32×32×32 Å3. Particle-Mesh”
as §2
Using the QM-parameterized force field model, the QM-parameterized force field device can compute or predict the solvation free energies using both the Bennett acceptance ratio (BAR) and thermodynamic integration (TI) method with <dH/dλ> values interpolated by cubic splines.

[11] = implicit solvent model, values received; cited from earlier work
[12] = implicit solvent model, values received; cited from earlier work; remark: listed apart in the source
[13] = Table 3, free energy of solvation in cyclohexane
[14] = Table 3, absolute error of MD log D vs experiment
[15] = Table 3, absolute error of PIMD log D vs experiment
[16] = Table 3, absolute error of MD hydration free energy vs experiment
[17] = Table 3, absolute error of PIMD8 hydration free energy vs experiment
[18] = Table 4, neutral amino-acid analogues
[19] = Table 4, solvation free energy in cyclohexane
[20] = Table 4, error of MD hydration free energy vs experiment
[21] = Table 4, error of PIMD8 hydration free energy vs experiment
[22] = Table 3, free energy of hydration

Row | SMILES | CHEX Exp (solvation) [1, 13] [kcal/mol] | log D Arrow MD Error [2, 14] | log D Arrow PIMD Error [2, 15] | water Arrow MD Error [3, 16] [kcal/mol] | water Arrow PIMD8 Error [3, 17] [kcal/mol] | Arrow PIMD8 Error [3] [kcal/mol] | SMD Error [4] [kcal/mol] | Exp (log D) [5] | COSMO/Molpro Error [6] [kcal/mol] | COSMO-RS error [7] [kcal/mol] | PCM Error [8] [kcal/mol] | water Exp (hydration) [9, 18] [kcal/mol] | CHEX Exp (solvation) [1, 19] [kcal/mol] | water Arrow MD Error [3, 20] [kcal/mol] | water Arrow PIMD8 Error [3, 21] [kcal/mol] | logD Exp (logD) [5] | CHEX Arrow MD Error [10] [kcal/mol] | water Exp (hydration) [9, 22] [kcal/mol] | PCM free energy of hydration [11] [kcal/mol] | SMD free energy of hydration [12] [kcal/mol] | also measured
1 | CCC(C)=O [2-Butanone] | -3.47 | 0.11 | 0.21 | 0.43 | 0.16 | 0.16 | 0.09 | −0.18 | 4.15 | 0.17 | 0.19 |  |  |  |  |  |  |  |  |  | 
2 | Cc1c[nH]cn1 [Methylimidazole (His)] |  |  |  |  |  |  |  |  |  |  |  | -10.06 | -5.59 | 0.40 | 0.03 | −3.28 | 0.33 |  |  |  | logD Arrow MD Error ([2]; Table 4, error of MD logD vs experiment): 0.05; logD Arrow PIMD Error ([2]; Table 4, error of PIMD logD vs experiment): 0.04; CHEX Arrow PIMD4 Error [10]: 0.09 kcal/mol
3 | CCC(=O)O [propionicacid] | -3.32 |  |  | 0.24 | 0.25 | 0.25 | 0.96 | −2.30 | 2.03 | 0.15 | 2.16 | -6.46 | -3.32 | 0.24 | 0.25 | −2.30 | 0.06 | -6.46 | -4.30 | -5.50 | log D Arrow MD Error [2]: 0.22; log D Arrow PIMD Error [2]: 0.05; logD Arrow MD Error [2]: 0.22; logD Arrow PIMD Error [2]: 0.05; CHEX Arrow PIMD4 Error [10]: 0.18 kcal/mol
4 | CCCCC [Pentane] |  |  |  |  |  |  |  | 4.28 |  |  |  |  |  |  |  |  |  |  |  |  | log D Arrow MD Error [2]: 0.39; log D Arrow PIMD Error [2]: 0.17
5 | CCCS [Propanethiol] | -3.12 | 0.38 | 0.36 | 0.81 | 0.40 | 0.40 | 0.15 | 1.52 | 2.88 |  | 1.15 |  |  |  |  |  |  | -1.05 | -2.20 | -0.90 | 
6 | c1ccc2cc3ccccc3cc2c1 [Anthracene] |  |  |  | 0.32 | 0.07 | 0.07 | 1.75 |  | 1.77 | 0.17 | 1.05 |  |  |  |  |  |  | -3.95 | -2.90 | -2.20 | estimated statistical error of computed free energy of solvation ([3]; 1 ns trajectory, TI, FIG. 7B, in water): about 0.2 kcal/mol
7 | Cc1c[nH]c2ccccc12 [3-methyl-indole] | -8.08 |  |  | 2.00 | 1.02 | 1.02 |  | 1.61 | 1.95 | 0.99 |  | -5.88 | -8.08 | 2.00 | 1.02 | 1.61 | 0.24 | -5.88 |  |  | log D Arrow MD Error [2]: 1.29; log D Arrow PIMD Error [2]: 0.76; logD Arrow MD Error [2]: 1.29; logD Arrow PIMD Error [2]: 0.76; hydration error ([3]; predicted vs experimental free energy of hydration): -1 kcal/mol; CHEX Arrow PIMD4 Error [10]: 0.01 kcal/mol
8 | c1ccc2ccccc2c1 [Napthalene] | -7.17 | 0.19 | 0.01 | 0.74 | 0.24 | 0.24 | 0.90 | 3.50 | 2.11 | 0.23 | 0.10 |  |  |  |  |  |  | -2.40 | -2.30 | -1.50 | 
9 | CCCCCC [Hexane] |  |  |  | 0.94 | 0.06 | 0.06 | 0.11 |  | 3.37 | 0.06 | 2.71 |  |  |  |  |  |  | 2.51 | -0.20 | 2.40 | 
10 | C=CC [Propene] |  |  |  | 0.48 | 0.05 | 0.05 | 0.12 |  | 3.00 | 0.32 | 2.12 |  |  |  |  |  |  | 1.32 | -0.80 | 1.20 | 
